# Assay results: publication PMC7932521, “2-aminobenzimidazoles for leishmaniasis: From initial hit discovery to in vivo profiling” (PLoS Neglected Tropical Diseases, 2021)
# Where two headings read alike, the source gives them in different places.
# Assays:
# Opioid mu [1] = target: T1, Opioid mu (Homo sapiens, UniProt P35372); assay: Bioprofiling 6pt Ag Opioid mu CHO; format: cell-based; conditions: agonist readout
# T1 construct: expressed in transfected cells; host or cells: CHO
# Method: (§1) The compounds were evaluated across a panel of 20 liability targets (37 functional assays) which included functional cell-based GPCRs and ion channels in both agonist and antagonist readout, measuring calcium flux and biochemical functional assays for nuclear hormone receptors and phosphodiesterases using TR-FRET format, in a 6 point 1:3 dilution dose series (maximum final concentration of 10 μM).
# Opioid mu [2] = target: T1, Opioid mu; assay: Bioprofiling 6pt Antag Opioid mu CHO; format: cell-based; conditions: antagonist readout vs DAMGO
# Method: as §1
# Beta1 = target: T2, Beta1 (Homo sapiens, UniProt P08588); assay: Bioprofiling 6pt Ag Beta1 CHO; format: cell-based; conditions: agonist readout
# T2 construct: expressed in transfected cells; host or cells: CHO
# Method: as §1
# CB1 = target: T3, CB1 (Homo sapiens, UniProt P21554); assay: Bioprofiling 6pt Antag CB1 CHO; format: cell-based; conditions: antagonist readout vs WIN 55,212-2
# T3 construct: expressed in transfected cells; host or cells: CHO
# Method: as §1
# Alpha1A = target: T4, Alpha1A (Homo sapiens, UniProt P35348); assay: Bioprofiling 6pt Ag Alpha1A CHO; format: cell-based; conditions: agonist readout
# T4 construct: expressed in transfected cells; host or cells: CHO
# T4 sequence (P35348 1-466): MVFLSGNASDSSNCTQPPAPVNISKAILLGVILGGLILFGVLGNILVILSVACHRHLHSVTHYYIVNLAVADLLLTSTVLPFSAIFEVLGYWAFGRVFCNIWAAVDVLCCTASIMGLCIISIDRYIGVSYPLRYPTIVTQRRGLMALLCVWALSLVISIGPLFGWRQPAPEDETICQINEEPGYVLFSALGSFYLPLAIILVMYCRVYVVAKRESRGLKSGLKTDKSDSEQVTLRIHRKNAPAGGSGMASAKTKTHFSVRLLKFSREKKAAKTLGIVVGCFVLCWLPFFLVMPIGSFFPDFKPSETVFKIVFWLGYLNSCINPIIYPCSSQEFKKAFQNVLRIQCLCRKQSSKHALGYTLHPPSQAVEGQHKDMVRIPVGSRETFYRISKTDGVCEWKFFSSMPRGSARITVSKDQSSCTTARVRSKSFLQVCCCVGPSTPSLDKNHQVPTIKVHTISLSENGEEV
# Method: as §1
# A1 = target: T5, A1 (Homo sapiens, UniProt P30542); assay: Bioprofiling 6pt Antag A1 CHO; format: cell-based; conditions: antagonist readout vs N6-Cyclopentyladenosine (CPA)
# T5 construct: expressed in transfected cells; host or cells: CHO
# T5 sequence (P30542 1-326): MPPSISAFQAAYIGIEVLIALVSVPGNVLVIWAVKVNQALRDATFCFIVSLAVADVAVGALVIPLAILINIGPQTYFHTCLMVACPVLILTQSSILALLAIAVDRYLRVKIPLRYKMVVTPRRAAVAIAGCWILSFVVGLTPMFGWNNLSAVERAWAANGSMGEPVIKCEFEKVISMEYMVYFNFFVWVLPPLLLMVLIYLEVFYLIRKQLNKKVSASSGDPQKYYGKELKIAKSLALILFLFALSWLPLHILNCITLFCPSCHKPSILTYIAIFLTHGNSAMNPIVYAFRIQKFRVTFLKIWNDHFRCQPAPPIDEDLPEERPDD
# Method: as §1
# PDE4B2 = PDE4B2 (Homo sapiens, UniProt Q07343); assay: Bioprofiling 6pt Antag PDE4B2; format: biochemical; conditions: substrate cAMP
# Method: as §1
# B2 = target: T6, B2 (Homo sapiens, UniProt P30411); assay: Bioprofiling 6pt Ag B2 CHO; format: cell-based; conditions: agonist readout
# T6 construct: expressed in transfected cells; host or cells: CHO
# T6 sequence (P30411 1-391): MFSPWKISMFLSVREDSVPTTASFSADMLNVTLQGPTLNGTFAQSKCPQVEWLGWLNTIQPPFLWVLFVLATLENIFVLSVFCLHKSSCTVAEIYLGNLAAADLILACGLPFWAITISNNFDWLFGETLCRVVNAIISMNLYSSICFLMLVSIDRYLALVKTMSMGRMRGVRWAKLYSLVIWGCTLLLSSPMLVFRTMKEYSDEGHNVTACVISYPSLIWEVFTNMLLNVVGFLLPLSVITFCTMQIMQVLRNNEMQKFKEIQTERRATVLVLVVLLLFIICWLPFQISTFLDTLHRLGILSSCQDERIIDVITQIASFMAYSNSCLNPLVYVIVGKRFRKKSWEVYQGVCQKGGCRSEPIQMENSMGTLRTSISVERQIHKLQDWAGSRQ
# Method: as §1
# Kinetic solubility = format: physicochemical; conditions: for solubility kinetic at 24 h: PBS buffer pH 7.4, aqueous buffer, kinetic from dmso stock, PBS pH 7.4, read-out: KS PBS - pH7.4; for KS pH 7.4: kinetic solubility
# Method: The precipitates on the incubation plate were removed by centrifugation (15 min, 3000 rpm, r.t.); the compound concentration in the resulting supernatant was determined by LC-MS/MS. Results were calculated as the concentration of remaining compound in solution after incubation.
# [3] = tested on: Leishmania infantum MHOM/MA(BE)/67/ITMAP263 amastigotes; assay: L. infantum intracellular amastigote assay in PMM; format: cell-based; conditions: for SI: selectivity index (CC50 / IC50): CC50 / L. infantum IC50; for IC50: read-out: L. infantum IC50
# Method in brief: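 Mouse peritoneal macrophages infected with hamster spleen-derived amastigotes (2 h, 37°C), then exposed to 4-fold dilutions from 64 μM (DMSO <1%) for 5 days at 37°C, 5% CO2. Burden scored microscopically after Giemsa staining as percent reduction vs untreated wells; IC50 as geometric mean of ≥2 experiments.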
# PDE3A = PDE3A (Homo sapiens, UniProt Q14432); assay: Bioprofiling 6pt Antag PDE3A; format: biochemical; conditions: substrate cAMP
# Method: as §1
# [4] = Leishmania infantum, 120 h, intracellular amastigotes in PMM, 5 days
# Sequence of PDE4B2 (Q07343 1-564 isoform Q07343-2): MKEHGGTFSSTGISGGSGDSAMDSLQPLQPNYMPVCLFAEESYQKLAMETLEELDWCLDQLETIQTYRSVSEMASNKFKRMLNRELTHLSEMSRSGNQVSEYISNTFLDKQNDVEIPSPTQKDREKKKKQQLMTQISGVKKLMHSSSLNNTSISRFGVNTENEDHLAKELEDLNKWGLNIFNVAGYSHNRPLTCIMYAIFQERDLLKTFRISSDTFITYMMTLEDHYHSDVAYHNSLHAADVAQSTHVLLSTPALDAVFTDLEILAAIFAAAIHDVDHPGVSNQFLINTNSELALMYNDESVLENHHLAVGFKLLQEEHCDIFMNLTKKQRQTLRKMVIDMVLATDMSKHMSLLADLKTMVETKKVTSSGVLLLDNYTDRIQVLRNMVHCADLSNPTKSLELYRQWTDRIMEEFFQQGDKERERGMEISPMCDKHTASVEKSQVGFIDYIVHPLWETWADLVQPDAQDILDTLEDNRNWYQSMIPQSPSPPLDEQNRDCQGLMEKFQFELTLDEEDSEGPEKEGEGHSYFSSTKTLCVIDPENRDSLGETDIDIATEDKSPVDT
# T1 sequence (P35372 whole entry): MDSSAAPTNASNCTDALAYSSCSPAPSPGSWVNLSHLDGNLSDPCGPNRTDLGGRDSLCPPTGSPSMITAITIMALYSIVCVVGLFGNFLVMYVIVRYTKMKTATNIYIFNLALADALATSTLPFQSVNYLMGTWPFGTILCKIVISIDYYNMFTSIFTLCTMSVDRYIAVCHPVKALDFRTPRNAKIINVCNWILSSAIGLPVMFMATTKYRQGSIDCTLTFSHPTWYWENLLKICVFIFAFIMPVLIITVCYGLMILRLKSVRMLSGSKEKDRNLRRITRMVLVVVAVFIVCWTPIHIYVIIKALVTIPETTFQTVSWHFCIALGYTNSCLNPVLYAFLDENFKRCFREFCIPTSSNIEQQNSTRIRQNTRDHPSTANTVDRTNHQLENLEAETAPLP
# T2 sequence (P08588 whole entry): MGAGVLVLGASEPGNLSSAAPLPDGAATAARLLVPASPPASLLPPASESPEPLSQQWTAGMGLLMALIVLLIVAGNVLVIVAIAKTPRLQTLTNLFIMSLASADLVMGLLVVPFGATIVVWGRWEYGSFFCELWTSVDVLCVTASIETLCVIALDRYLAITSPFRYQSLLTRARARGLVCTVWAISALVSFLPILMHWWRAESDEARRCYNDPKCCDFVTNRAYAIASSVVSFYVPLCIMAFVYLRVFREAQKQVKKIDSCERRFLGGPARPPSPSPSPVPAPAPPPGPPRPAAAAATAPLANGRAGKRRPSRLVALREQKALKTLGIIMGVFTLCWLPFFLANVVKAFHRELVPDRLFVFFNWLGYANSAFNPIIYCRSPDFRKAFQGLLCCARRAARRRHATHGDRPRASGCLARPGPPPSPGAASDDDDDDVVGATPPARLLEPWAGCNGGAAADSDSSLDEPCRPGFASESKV
# Sequence of PDE3A (Q14432 whole entry): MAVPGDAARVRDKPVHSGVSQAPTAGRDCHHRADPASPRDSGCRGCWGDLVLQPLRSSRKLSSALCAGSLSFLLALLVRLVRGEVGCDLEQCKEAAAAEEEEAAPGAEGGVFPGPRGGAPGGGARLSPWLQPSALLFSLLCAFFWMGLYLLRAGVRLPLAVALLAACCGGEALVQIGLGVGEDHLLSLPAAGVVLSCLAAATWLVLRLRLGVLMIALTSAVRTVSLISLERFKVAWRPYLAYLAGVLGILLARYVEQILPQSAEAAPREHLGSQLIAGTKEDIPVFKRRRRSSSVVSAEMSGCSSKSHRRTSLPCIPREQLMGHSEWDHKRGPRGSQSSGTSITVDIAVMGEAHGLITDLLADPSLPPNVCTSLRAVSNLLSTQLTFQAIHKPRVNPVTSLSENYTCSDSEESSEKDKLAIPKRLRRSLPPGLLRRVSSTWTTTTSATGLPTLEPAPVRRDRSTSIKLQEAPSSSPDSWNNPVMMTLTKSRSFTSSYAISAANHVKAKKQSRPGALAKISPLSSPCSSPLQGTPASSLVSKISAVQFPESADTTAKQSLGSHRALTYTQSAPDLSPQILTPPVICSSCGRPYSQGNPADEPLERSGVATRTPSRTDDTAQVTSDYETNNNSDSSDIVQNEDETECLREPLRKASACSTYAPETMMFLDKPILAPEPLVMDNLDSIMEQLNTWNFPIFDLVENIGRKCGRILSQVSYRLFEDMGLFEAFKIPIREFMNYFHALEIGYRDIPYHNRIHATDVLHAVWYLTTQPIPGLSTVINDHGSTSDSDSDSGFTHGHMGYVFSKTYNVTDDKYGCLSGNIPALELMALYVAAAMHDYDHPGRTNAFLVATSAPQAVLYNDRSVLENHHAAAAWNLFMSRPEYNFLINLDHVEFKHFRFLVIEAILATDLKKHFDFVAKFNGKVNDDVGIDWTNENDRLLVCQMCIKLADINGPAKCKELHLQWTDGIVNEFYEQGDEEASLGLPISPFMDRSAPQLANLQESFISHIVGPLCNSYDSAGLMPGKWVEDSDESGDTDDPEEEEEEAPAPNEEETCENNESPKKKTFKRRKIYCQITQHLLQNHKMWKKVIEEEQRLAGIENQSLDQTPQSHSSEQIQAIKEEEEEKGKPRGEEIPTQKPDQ
# T3 sequence (P21554 whole entry): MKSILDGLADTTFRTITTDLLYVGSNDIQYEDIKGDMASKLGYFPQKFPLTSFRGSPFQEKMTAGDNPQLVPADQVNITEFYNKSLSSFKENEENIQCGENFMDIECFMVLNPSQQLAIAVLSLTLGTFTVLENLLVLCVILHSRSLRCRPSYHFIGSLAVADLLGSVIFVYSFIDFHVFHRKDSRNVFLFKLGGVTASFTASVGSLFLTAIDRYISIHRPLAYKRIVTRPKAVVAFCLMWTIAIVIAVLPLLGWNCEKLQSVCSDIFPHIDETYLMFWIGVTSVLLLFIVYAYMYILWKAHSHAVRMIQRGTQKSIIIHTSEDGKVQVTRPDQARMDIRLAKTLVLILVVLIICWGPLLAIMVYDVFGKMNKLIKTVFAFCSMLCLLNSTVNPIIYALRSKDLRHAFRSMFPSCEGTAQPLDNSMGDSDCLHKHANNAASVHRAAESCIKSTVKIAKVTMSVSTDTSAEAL
Structure (SMILES),EC50 (Opioid mu [1]) [µM],IC50 (Opioid mu [2]) [µM],EC50 (Beta1) [µM],IC50 (CB1) [µM],EC50 (Alpha1A) [µM],IC50 (A1) [µM],IC50 (PDE4B2) [µM],EC50 (B2) [µM],solubility kinetic at 24 h (Kinetic solubility) [µg/mL],KS PBS - pH 2 (Kinetic solubility) [ug/mL],SI: selectivity index (CC50 / IC50) [3],"IC50 [3, 4] [µM]","IC50 ([3]; Leishmania infantum, S1 Data) [µM]",IC50 (PDE3A) [µM],KS pH 7.4 (Kinetic solubility) [μM],potency compared to initial hit 1 ([3]; L. infantum IC50) [fold],potency compared to parent compound 30 ([3]; L. infantum IC50) [fold],"IC50 ([3]; intracellular amastigotes in PMM, 5 days) [µM]"
"N#Cc1ccc2nc(NC(=O)c3ccc(C(F)(F)F)nc3)n(CC(F)(F)F)c2c1 [Compound 45, O=C(c1ccc(C(F)(F)F)nc1)Nc2nc(ccc(C#N)c3)c3n2CC(F)(F)F]",> 10,> 10,> 10,> 10,> 10,> 10,> 10,> 10,0.41,0.41,2,4.3,4.28,> 10,,,,
"Cn1nc(C(F)(F)F)cc1C(=O)Nc1nc2ccc(C#N)cc2n1CC(F)(F)F [Compound 39, O=C(c1cc(C(F)(F)F)nn1C)Nc2nc(ccc(C#N)c3)c3n2CC(F)(F)F]",> 10,> 10,> 10,> 10,> 10,> 10,> 10,> 10,0.42,0.42,2,0.5,,3.32,<1.0,10 to 20,4,0.53
"Cn1nccc1C(=O)Nc1nc2ccc(C#N)cc2n1CC(C)(C)C [Compound 29, O=C(Nc1n(CC(C)(C)C)c(c2n1)cc(C#N)cc2)c3n(C)ncc3]",> 10,> 10,> 10,> 10,> 10,> 10,> 10,> 10,3.11,1.77,7,4.1,4.12,> 10,9.2,,,
"N#Cc1ccc2nc(NC(=O)c3ccnc(C(F)(F)F)c3)n(CC(F)(F)F)c2c1 [Compound 44, O=C(c1ccnc(C(F)(F)F)c1)Nc2nc(ccc(C#N)c3)c3n2CC(F)(F)F]",> 10,> 10,> 10,> 10,> 10,> 10,> 10,> 10,0.41,0.41,5,0.84,,2.7,<1.0,10 to 20,,
"Cn1nccc1C(=O)Nc1nc2ccc(C#N)cc2n1CC(F)(F)F [Compound 30, O=C(c1ccnn1C)Nc2nc(ccc(C#N)c3)c3n2CC(F)(F)F]",> 10,> 10,> 10,> 10,> 10,> 10,> 10,> 10,9.22,10.45,14,2.2,2.22,> 10,26,,,
"COc1ccc(C(=O)Nc2nc3ccc(C#N)cc3n2CC(F)(F)F)cn1 [Compound 43, O=C(c1ccc(OC)nc1)Nc2nc(ccc(C#N)c3)c3n2CC(F)(F)F]",> 10,> 10,> 10,> 10,> 10,> 10,> 10,> 10,0.38,0.38,5,7,6.95,> 10,,,,
